Reference: US5391489A, “Proteolytic enzymes from hyperthermophilic bacteria and processes for their production” (Johns Hopkins University, priority 1993, dated 1995)
Like-named read-outs stand apart in the source and are kept apart here.

Key:
[1] = system: purified SDS-resistant proteolytic enzyme preparation; assay: Effects of solvents on purified SDS-resistant proteolytic enzyme preparation; type: biochemical, Pyrococcus furiosus
Procedure: (§1) Determination of proteolytic activity was based on the cleavage of azocasein (Cowan, D. A., et al., 1987, Biochem, J. 247:121-133). Assay mixtures contained 900 μl of 0.1% azocasein in 0.05M sodium phosphate buffer (pH 7.3 at 100° C.), and 100 μl of sample. The reaction was terminated by the addition of 500 μl of 15% (w/v) trichloracetic acid, and the cooled on ice for 5 min. The precipitate formed was removed by centrifugation at 12,000×g for 3 min in a microcentrifuge. Color release as a result of proteolytic activity was detected by measuring the absorbance of the supernatant at 440 nm. Linear response of the assay was obtained between 0.010 and 0.100 absorbance units. A unit of activity is defined as the amount of protein which produces a change of 0.100 absorbance units at 440 nm for a 30 min. incubation at a given temperature. Total protein was measured using the BioRad assay kit.
(§2) Purified samples of the SDS-resistant protease were obtained by incubation of the cell-free extract for 24 hours in the presence of 1% SDS at 98° C. Extracts treated in this way were then dialyzed against 5 mM sodium phosphate buffer, pH 7.5 at 4° C. overnight and concentrated in a Pharmacia Omegacell Stirred Cell (nominal molecular weight limit of 10 kDa) to a concentration of 2-3 mg/ml protein measured by the Bio-Rad protein assay kit.

[2] = system: purified SDS-resistant proteolytic enzyme preparation; assay: Effect of denaturing agents on activity of the purified protease (standard azocasein assay); type: biochemical, Pyrococcus furiosus; details: for loss of proteolytic activity: 1 molar, at 98° C. for at least 30 minutes; for percentage of original activity: standard assay conditions
Procedure: Several denaturing agents were added to azocasein, both in the presence and absence of the protease, to control of possible degradation of the substrate in the presence of the agents. […] Thus, high concentrations of urea and guanidinium chloride led to significant abiotic hydrolysis of azocasein such that results were difficult to interpret. The increases in relative activity above 100% are likely the result of the denaturing agents acting to make the azocasein substrate more susceptible to enzymatic hydrolysis.
as §1, §2

[3] = system: purified SDS-resistant proteolytic enzyme preparation; assay: Inhibitor studies on purified SDS-resistant proteolytic enzyme preparation; type: biochemical, Pyrococcus furiosus; details: for inhibition: concentrations below 150 μM; for inhibition at point of complete saturation: reached at 400 μM
Procedure: FIG. 7. Effect of chelating inhibitors EDTA and EGTA on activity at 98° C. of purified SDS-resistant proteolytic enzyme preparation from Pyrococcus furiosus. Samples of purified enzyme preparation were assayed in the standard azocasein with the inhibitor concentrations indicated.
as §1, with “Linear response of the assay was obtained between 0.010 and 0.100 absorbance units.” left out
as §2

[4] = Hydrolysis of synthetic substrate benzoyl-L-arginine ethyl ester; type: biochemical; details: at 60° C.
Procedure: (§3) For tests on the substrate specificity of the purified SDS-resistant preparation, benzoyl-L-arginine ethyl ester, benzoyl-DL-arginine p-nitroanilide, serum thymic factor, angiotensin I, and trypsin were obtained from Sigma. Assays of benzoyl-L-arginine ethyl ester and benzoyl-arginine p-nitroanilide were performed as described previously (Schwert, G. W. et al., 1955, Biochem. Biophys. Acta 16:570-575; Erlanger, B. F., et al., 1961, Arch. Biochem. Biophys. 95:271-278) with a change in buffers to 50 mM sodium phosphate buffer, pH 7.5, and a substrate preincubation of two minutes at standard assay temperature.

[5] = system: angiotensin I; assay: Hydrolysis of peptide angiotensin I (reverse phase separation of products); type: biochemical; details: after two hours at 40° C.
Procedure: FIG. 8. Comparison of hydrolysis products of angiotensin I polypeptide by trypsin and purified SDS-resistant proteolytic enzyme preparation ("Pyrolysin") showing similarity of cleavage except for one additional cleavage by the novel enzyme preparation.
A chromatogram of the cleavage products of angiotensin I after exposure to the purified P. furiosus protease and to trypsin is shown in FIG. 8.
Hydrolysis of peptides was conducted with a modification of a procedure described by Cowan et al., 1987, Biochem. J. 247:121-133). The peptides serum thymic factor and angiotensin I were incubated with the protease from P. furiosus for fifteen and sixty minutes at 98° C., and two hours with trypsin at 40° C. End products were separated by reverse phase chromatography on a Waters high-performance liquid chromatography system using a WISP auto injector and μ-Bondapak C18 with a linear gradient of acetonitrile and water, with 0.1% trifluoroacetic acid in both phases. Peaks from the reverse phase column were dried down in a Savant Speed-Vac and analyzed by Waters Pico-Tag amino acid analysis.

[6] = Hydrolysis of synthetic substrate benzoyl DL-arginine p-nitroanilide; type: biochemical; details: at 60° C.
Procedure: as §3

## CN(C)C=O [Dimethylformamide]
[1]; 10% (v/v) solvent
  % Activity: 80%
[1]; 50% (v/v) solvent
  % Activity: 13%
[1]; 100% solvent
  % Activity: 25%

## NC(N)=O [urea]
[2]
  loss of proteolytic activity: no loss of proteolytic activity
[2]; 2M denaturant
  percentage of original activity: 124%
[2]; 4M denaturant
  percentage of original activity: 138%

## O[C@H](CS)[C@H](O)CS (racemic) [dithiothreitol]
[2]; 10 mM
  percentage of original activity: 39.5%

## O=S(=O)(F)Cc1ccccc1 [phenyl methylsulfonyl fluoride]
[3]; 10 mM inhibitor
  % inhibition: 0%

## O=C(O)CN(CCN(CC(=O)O)CC(=O)O)CC(=O)O [EDTA]
[3]; 100 μM inhibitor
  % inhibition: 7.8%
[3]; 500 μM inhibitor
  % inhibition: 51%
[3]; 10 mM inhibitor
  % inhibition: 49%
[3]
  inhibition: no inhibition
  inhibition at point of complete saturation: about 50%

## O=C(O)c1cc[c]([Hg][Cl])cc1 [p-chloromercuribenzoate]
[3]; 10 mM inhibitor
  % inhibition: 40%

## CC#N [Acetonitrile]
[1]; 20% (v/v) solvent
  % Activity: 77%
[1]; 50% (v/v) solvent
  % Activity: 71%
[1]; 70% (v/v) solvent
  % Activity: 39%

## N=C(N)N [guanidinium chloride]
[2]; 1M denaturant
  percentage of original activity: 256%
[2]
  loss of proteolytic activity: no loss of proteolytic activity
[2]; 2M denaturant
  percentage of original activity: 299%

## OCCS [β-mecaptoethanol]
[2]; 150 mM
  percentage of original activity: 57%

## O=C(O)CI [iodoacetic acid]
[3]
  % inhibition: 0%

## O=C(O)CN(CCOCCOCCN(CC(=O)O)CC(=O)O)CC(=O)O [EGTA, [Ethylenebis(oxyethylenenitrilo)]tetraacetic acid]
[3]; 100 μM inhibitor
  % inhibition: 7.8%
[3]; 500 μM inhibitor
  % inhibition: 51%
[3]; 10 mM inhibitor
  % inhibition: 49%
[3]
  inhibition: no inhibition
  inhibition at point of complete saturation: about 50%

B1: trypsin (protein, UniProt P00760 24-246, looked up)
Serine protease 1: IVGGYTCGANTVPYQVSLNSGYHFCGGSLINSQWVVSAAHCYKSGIQVRLGEDNINVVEGNEQFISASKSIVHPSYNSNTLNNDIMLIKLKSAASLNSRVASISLPTSCASAGTQCLISGWGNTKSSGTSYPDVLKCLKAPILSDSSCKSAYPGQITSNMFCAGYLEGGKDSCQGDSGGPVVCSGKLQGIVSWGSGCAQKNKPGVYTKVCNYVSWIKQTIASN
notes: comparison protease obtained from Sigma
[4]
  hydrolysis of substrate: effective
[5]
  remaining uncleaved peptide: still a portion of uncleaved angiotensin I
[6]
  hydrolysis of substrate: effective
